# Laboratory results from patent US20240374551A1, “ENTERO-ANTISEPTIC FOR THE TREATMENT OF GASTROINTESTINAL INFECTIONS IN HUMANS” (priority 2023, published 2024).
# What was measured:
# Streptococcus pneumonia = assay: Zone diameter on Müler-Hinton-Agar; assay type: cell-based
# Yersinia = assay type: cell-based; settings: Müler-Hinton-Agar
# Streptococcus uberis = assay: Zone diameter on Müler-Hinton-Agar; assay type: cell-based
# Streptococcus pyogenes = assay: Zone diameter on Müler-Hinton-Agar; assay type: cell-based
# Vibrio = assay: Zone diameter on Müler-Hinton-Agar; assay type: cell-based
# Campylobacter = assay: Zone diameter on Müler-Hinton-Agar; assay type: cell-based
# Escherichia coli 0157H5 = assay: Zone diameter on Müler-Hinton-Agar; assay type: cell-based
# Shigella = assay: Zone diameter on Müler-Hinton-Agar; assay type: cell-based
# Listeria monocytogenes = assay: Zone diameter on Müler-Hinton-Agar; assay type: cell-based
# [1] = test system: Salmonella typhimurium DT104; assay: Zone diameter on Müler-Hinton-Agar; assay type: cell-based
# Staphylococcus aureus = assay: Zone diameter on Müler-Hinton-Agar; assay type: cell-based
# Listeria = assay: Zone diameter on Müler-Hinton-Agar; assay type: cell-based
# Salmonella = assay: Zone diameter on Müler-Hinton-Agar; assay type: cell-based
# bacteria = assay: In vitro studies of bactericide effect versus Thymol and Carvacrol; assay type: cell-based
# white lab mice [2] = assay: Acute toxicity, parenteral intraperitoneal LD50 i.p., mice; settings: mouse, in vivo
# white lab rats [3] = assay: Acute toxicity, parenteral intraperitoneal LD50 i.p., rats
# white lab mice [4] = assay: Acute toxicity, oral LD50 p.o., mice
# mammalian cells = assay: Pilot test of effect on mitotic cell division; settings: compound in tablet form
# white lab rats [5] = assay: Acute toxicity, oral LD50 p.o., rats
# [6] = Clinical pilot study on side effects, 60 humans; assay type: in vivo; settings: 250 mg/30 kg body weight every 12 h for 7 days
# Description: The reason for this testing was to check if the compound tablets, after a longer period of use, can cause any eventual side effects.
# The test results were generated and monitored to obtain the relevant information and facts. In this study, the general monitored parameters were: pulse, breathing, ECG (Electrocardiography), discomfort, adverse events, and/or allergy monitoring. These parameters were measured before the treatment with the compound and 15 min after its intake. The compound was ingested on the therapeutic days in each patient at 8.00 AM and 8.00 PM CET (paragraph [0034] and paragraph [0035]). After The compound had been consumed, the physician made observations for 30 min. The patients' feelings during and after the compound intake were also recorded for each participant.
# As part of the biochemical analysis of patients' blood, each patient's blood sample was checked for biochemical parameters. Blood samples were taken from each patient before the beginning of the test, on the 4th day from the tests beginning, and on the 8th day from the tests beginning. […] The biochemical parameters that were measured in blood samples include: • 1. Liver status • 2. C Reactive protein • 3. Kidney status
# The dose was: 250 mg of the compound/30 kg of the body weight every 12 h for seven (7) days (paragraph [0034] and paragraph [0035]). […]
Compound,R (evaluation by zone diameter) (Streptococcus pneumonia),R (evaluation by zone diameter) (Yersinia),R (evaluation by zone diameter) (Streptococcus uberis),R (evaluation by zone diameter) (Streptococcus pyogenes),R (evaluation by zone diameter) (Vibrio),R (evaluation by zone diameter) (Campylobacter),R (evaluation by zone diameter) (Escherichia coli 0157H5),R (evaluation by zone diameter) (Shigella),R (evaluation by zone diameter) (Listeria monocytogenes),R (evaluation by zone diameter) [1],R (evaluation by zone diameter) (Staphylococcus aureus),R (evaluation by zone diameter) (Listeria),R (evaluation by zone diameter) (Salmonella),also measured
CC1(C)S[C@@H]2[C@H](NC(=O)[C@H](N)c3ccccc3)C(=O)N2[C@H]1C(=O)O [Ampicillin],R (0 mm-4 mm: resistant: R),R (0 mm-4 mm: resistant: R),R (0 mm-4 mm: resistant: R),R (0 mm-4 mm: resistant: R),R (0 mm-4 mm: resistant: R),R (0 mm-4 mm: resistant: R),MS (5 mm-9 mm: moderately sensitive: MS),MS (5 mm-9 mm: moderately sensitive: MS),MS (5 mm-9 mm: moderately sensitive: MS),MS (5 mm-9 mm: moderately sensitive: MS),R (0 mm-4 mm: resistant: R),R (0 mm-4 mm: resistant: R),MS (5 mm-9 mm: moderately sensitive: MS),
2-(2-isopropyl-5-methylphenoxy)-2-oxoethan-1-aminium 2-isopropyl-5methylphenolate [The novel compound],ES (21 mm and more: extremely sensitive: ES),ES (21 mm and more: extremely sensitive: ES),ES (21 mm and more: extremely sensitive: ES),ES (21 mm and more: extremely sensitive: ES),ES (21 mm and more: extremely sensitive: ES),ES (21 mm and more: extremely sensitive: ES),ES (21 mm and more: extremely sensitive: ES),ES (21 mm and more: extremely sensitive: ES),ES (21 mm and more: extremely sensitive: ES),ES (21 mm and more: extremely sensitive: ES),ES (21 mm and more: extremely sensitive: ES),ES (21 mm and more: extremely sensitive: ES),ES (21 mm and more: extremely sensitive: ES),"bactericide effect compared with Thymol and Carvacrol (bacteria): more effective and faster bactericide effect than existing Thymol and Carvacrol; mice that changed their behavior and demonstrated discomfort (white lab mice [2]): 27; time after which discomfort symptoms disappeared (white lab mice [2]): 3 to 5 min; rats that changed their behavior and demonstrated discomfort (white lab rats [3]; out of 100 rats, i.p. dose 2,500 mg/kg): 35; time after which discomfort symptoms disappeared (white lab rats [3]; rats, i.p., 2,500 mg/kg): 5 to 6 min; time after which discomfort symptoms disappeared (white lab mice [4]; mice, p.o., 2,000 mg/kg): 1 to 3 min; mice that changed their behavior and demonstrated light discomfort (white lab mice [4]; out of 100 mice, oral dose 2,000 mg/kg): 21; effect on mitotic cell division (mammalian cells): no negative effects were diagnosed; rats that changed their behavior and demonstrated light discomfort (white lab rats [5]; out of 100 rats, oral dose 2,500 mg/kg): 37; time after which discomfort symptoms disappeared (white lab rats [5]; rats, p.o., 2,500 mg/kg): 1 to 3 min; allergy symptoms [6]: no allergy symptoms; tolerance [6]: showed tolerance"
